# Where two headings read alike, the source gives them in different places.
# How the values were obtained:
# [1] = test system: TNF-α, IL-6, IL-1β, and MCP-1; test: ELISA of pro-inflammatory markers overall (TNF-α, IL-6, IL-1β, MCP-1) in LPS-stimulated THP-1 cells; format: cell-based; settings: Homo sapiens, read-out: Overall IC50 values for the evaluated pro-inflammatory markers
# Protocol: (§1) The logarithmic growth phase of THP-1 cells was achieved by seeding in 96-well plates at a density of 5 × 10^4 cells/well and differentiated for 24 h in the presence of PMA (0.5 μM solution in medium). After 24 h of incubation, the culture medium was removed from the 96-well plate and the cells were washed with PBS. Fresh RPMI-1640 medium supplemented with 0.1% FBS and 1% Penicillin–Streptomycin was added to each well and incubated at 37 °C overnight. The cells were pretreated with 17 limonoids at the corresponding concentration for 1 h, followed by the addition of LPS (10 ng/mL) and then incubation at 37 °C for 18 h. Finally, 50 μL of each culture supernatant solution was taken to determine the concentrations of IL-6, MCP-1, and IL-1β using the corresponding commercially available human ELISA kits following the manufacturer’s instructions. The analyte concentration in the supernatant was measured in pg/mL, and the inhibition level was expressed as a fold change compared to the LPS (−) control group. To determine the IC50 value, the dose-response data were normalized to the LPS-stimulated-only group, and the percentage of inhibition was calculated using the following formula: % Inhibition=(Absorbance of LPS+ control−Absorbance of compound treatment with LPS)/(Absorbance of LPS+ control−Absorbance of LPS− control)×100
# (§2) Furthermore, the % inhibition data were interpolated into linear equations to determine the IC50 values.
# [2] = Cell viability by CCK-8, HEK-Blue hTLR4 cells; format: cell-based; settings: human
# Protocol: (§3) The viability of HEK-Blue^TM hTLR4, […], and THP-1 cells was evaluated using the Dojindo Cell Counting Kit-8 (CCK-8) according to the manufacturer’s instructions. The viability of HEK-Blue^TM hTLR4 and THP-1 cells was assessed under identical conditions to the corresponding assay treatments. HEK-Blue^TM hTLR4 cells (2 × 10^4 cells/well) were seeded in 96-well plates and serum-starved for 24 h at 37 °C in a 5% CO2 atmosphere. After incubation, the culture medium was aspirated, and the cells were washed with saline. High-glucose D-MEM supplemented with 0.1% FBS and 1% penicillin–streptomycin was added and pretreated with or without the 17 limonoids at a concentration of 20 µM for 1 h, followed by LPS addition at a concentration of 10 ng/mL. After 18 h of incubation, a 10% (v/v) CCK-8 solution was added to each well and incubated at 37 °C for 1 h, and cell viability was calculated.
# [3] = test system: NF-κB activation in HEK-Blue hTLR4 cells; test: SEAP reporter gene assay, agonist effect on NF-κB activation (without LPS); format: cell-based, human; settings: 20 µM, compared to LPS (−)-treated cells
# Protocol: (§4) The SEAP Reporter Gene Assay was conducted as previously described. HEK-Blue^TM hTLR4 cells (2 × 10^4 cells/well) were seeded in 96-well plates and were serum-starved for 24 h at 37 °C in a 5% carbon dioxide atmosphere. After incubation, the culture medium was aspirated, and the cells were washed with saline. High-glucose D-MEM supplemented with 0.1% FBS and 1% penicillin-streptomycin was added and treated with or without the 17 limonoids at a concentration of 20 µM for 1 h, followed by LPS addition at a concentration of 10 ng/mL for the LPS-stimulated group. After incubation at 37 °C for 18 h, the supernatants were collected and PNPP in PBS solution (0.8 mM, 100 μL) was added, followed by 4 h of shading at 25 °C. The optical density (OD) of the samples was measured at 405 nm using a microplate reader (BioTek Cytation 5 Cell Imaging Multimode Reader, Agilent Technologies, Santa Clara, CA, USA).
# in vitro = format: cell-based; settings: mouse
# Protocol: as §3
# [4] = test system: TLR4-dependent NF-kB activation in HEK-Blue hTLR4 cells; test: SEAP reporter gene assay, antagonist effect on LPS-stimulated TLR4-dependent NF-κB activation; format: cell-based, human; settings: 20 µM, LPS 10 ng/mL, 18 h, vs. LPS stimulated-only group
# Protocol: as §4
# [5] = Cell viability by CCK-8, THP-1 cells; format: cell-based; settings: human, PMA-differentiated THP-1 cells
# Protocol: as §3
# The THP-1 cells at 5 × 10^4 cells/well were differentiated for 24 h in the presence of PMA (0.5 μM solution in medium). After 24 h of incubation, the culture medium was removed from the 96-well plate and the cells were washed with PBS. Fresh RPMI-1640 medium supplemented with 0.1% FBS and 1% penicillin–streptomycin was added to each well and incubated at 37 °C for overnight. The cells were pretreated with 17 limonoids at the corresponding concentration for 1 h followed by the addition of LPS (10 ng/mL) and incubated at 37 °C for 18 h. Furthermore, CCK-8 solution was added to each well with a final concentration was 10% (v/v) and incubated at 37 °C. After 1 h, the absorbance of each well was measured at […] by using a microplate reader (BioTek Cytation 5 Cell Imaging Multimode Reader). Cell viability was calculated using the following formula: % Cell viability=(Absorbance of sample−Absorbance of Background)/(Absorbance of control−Absorbance of Background)×100 where the absorbance of the sample is the absorbance of cells treated by the compound with or without LPS, the absorbance of the control is the absorbance of LPS (−)-treated cells, and the background absorbance is the absorbance of a well containing only the medium. The results were expressed as 100% cell viability.
# MCP-1 = test: ELISA of MCP-1 production in LPS-stimulated THP-1 cells; format: cell-based, human; settings: 10 µM, compared to LPS (+)-stimulated group, THP-1 cells
# Protocol: as §1, with “Fresh RPMI-1640 medium supplemented with 0.1% FBS and 1% Penicillin–Streptomycin was added to each well and incubated at 37 °C overnight.” left out
# as §2
# phosphorylated-p38 MAPK = test: Western blotting of phosphorylated-p38 MAPK in LPS-stimulated THP-1 cells; format: cell-based, human; settings: 10 µM, LPS 10 ng/mL, 18 h, compared to LPS (+) group
# Protocol: THP-1 cells were seeded at a density of 1 × 10^6 cells/well in 24-well plates. The cells were then pretreated with a concentration of 10 µM of compounds 3, 5, 9, or 15 for 1 h. Subsequently, LPS (10 ng/mL) was added to the cells, which were incubated for 18 h. The protein concentrations were determined using a bicinchoninic acid (BCA) assay kit.
# For Western blot analysis, proteins were separated by SDS-PAGE and transferred onto a polyvinylidene fluoride (PVDF) membrane. The membranes were blocked with 2.5% BSA in Tris-buffered saline-Tween (TBST) for 1 h at room temperature. After three washes with TBST, the membranes were incubated with a diluted primary antibody solution (anti-phosphorylated-p38 MAPK or anti-p38 MAPK) at a 1:1000 dilution for 1 h at room temperature. After three washes with TBS-T, the membranes were incubated with a secondary antibody conjugated to horseradish peroxidase (HRP; 1:4000 dilution) for 30 min at room temperature and subsequently detected by chemiluminescence. Finally, the bands were visualized and quantified using an ImageQuant 800 GxP system (Cytiva, MA, USA). The results were expressed as ratios relative to the reference protein β-actin.
# IL-6 = test: ELISA of IL-6 production in LPS-stimulated THP-1 cells; format: cell-based, human
# Protocol: as §1, with “Fresh RPMI-1640 medium supplemented with 0.1% FBS and 1% Penicillin–Streptomycin was added to each well and incubated at 37 °C overnight.” left out
# as §2
# IL-1β = test: ELISA of IL-1β production in LPS-stimulated THP-1 cells; format: cell-based, human; settings: 10 µM, compared to LPS (+)-stimulated group
# Protocol: as §1, §2
# TNF-α = test: ELISA of TNF-α production in LPS-stimulated THP-1 cells; format: cell-based, human; settings: for IC50: LPS-stimulated (10 ng/mL) THP-1 cells, 1, 5, 10, 20 µM, 18 h, read-out: TNF-α IC50
# [6] = Viability Cell (%) HEK-Blue hTLR4 LPS-Induced (10 ng/mL)
# [7] = Viability Cell (%) HEK-Blue hTLR4 Without LPS
# [8] = LPS 10 ng/mL, read-out: Viability Cell (%) THP-1 LPS-Induced (10 ng/mL)
# [9] = without LPS, read-out: Viability Cell (%) THP-1 Without LPS
# [10] = 10 µM, compared to LPS (+)-stimulated group, THP-1 cells
structure (smiles),measurement,setting,value
"CC1(C)C(=O)C=CC2(C)C1=C(O)C(=O)C1(C)C2(O)C(O)CC2(C)C(c3ccoc3)CC3OC321 (stereo not shown) [Compound 17, pentandricine G]",IC50,[1],< 20 µM
same,"viability at 18 h, 20 µM",[2]; [6],64.2 ± 9.05%
same,"viability at 18 h, 20 µM",[2]; [7],> 99.9%
same,Agonist effect on NF-κB activation,[3],weak agonist effect
same,viability at 5 µM,in vitro,77.5 ± 10.2%
same,viability at 10 µM,in vitro,72.2 ± 4.68%
same,viability at 20 µM,in vitro,73.1 ± 2.02%
same,Inhibition of SEAP release (NF-κB activity inhibition),[4],significantly inhibited SEAP release
same,"viability at 18 h, 10 µM",[5]; [8],> 99.9%
same,"viability at 18 h, 10 µM",[5]; [9],87.3 ± 4.18%
"CC(=O)O[C@@H]1[C@H](O)[C@H]2C(C)(C)C(=O)C=C[C@]2(C)[C@H]2CC[C@]3(C)C(=CC[C@H]3c3ccoc3)[C@]12C [Compound 9, nimonol]",IC50,[1],< 20 µM
same,"viability at 18 h, 20 µM",[2]; [6],74.8 ± 6.22%
same,"viability at 18 h, 20 µM",[2]; [7],> 99.9%
same,Effect on MCP-1 level,MCP-1,significantly reduced
same,viability at 5 µM,in vitro,93.8 ± 1.86%
same,viability at 10 µM,in vitro,89.9 ± 2.44%
same,viability at 20 µM,in vitro,79.4 ± 10.2%
same,Effect on p-p38 MAPK levels,phosphorylated-p38 MAPK,significantly suppressed
same,Effect on IL-6 level,IL-6; [10],significantly reduced
same,"IL-6 SI (selectivity index, CC50/IC50)",IL-6; THP-1 CC50 / IL-6 IC50,94.98
same,Effect on IL-1β level,IL-1β,significantly reduced
same,Effect on TNF-α level,TNF-α; [10],significantly reduced
same,IC50,"TNF-α; Homo sapiens, THP-1, 18 h",< 3 µM
same,IC50,TNF-α,2.15 µM
same,"TNF-α SI (selectivity index, CC50/IC50)",TNF-α; THP-1 CC50 / TNF-α IC50,49.92
same,"viability at 18 h, 10 µM",[5]; [8],83.9 ± 7.6%
same,"viability at 18 h, 10 µM",[5]; [9],> 99.9%
same,CC50 at 18 h,[5]; concentration causing 50% cytotoxicity against THP-1 cells,107 µM

# — publication PMC10814725, “In Vitro Anti-Inflammatory Study of Limonoids Isolated from Chisocheton Plants” (Current Issues in Molecular Biology, 2024)
